Data on six molecules can be found in DBAASP.

Common to all, as to assay: ≥ marks a high value that may be exact or a test limit, other limits are often not marked, values filed in µg/mL are converted to µM
For test [1], the system named is Staphylococcus aureus ATCC 29213.
Test [2] deals with Pseudomonas aeruginosa ATCC BAA-427.
Test [3] concerns Staphylococcus aureus ATCC 700699.
For test [4], the system named is Klebsiella pneumoniae ATCC 27736.
Test [5] has as its system Staphylococcus aureus ATCC 33592.
Test [6] concerns Bacillus subtilis ATCC 6633.
Test [7] concerns Candida albicans ATCC 10231.
Test [8] deals with Staphylococcus aureus ATCC 25923.
Test [9] concerns Candida parapsilosis ATCC 22019.
The subject of test [10] is Staphylococcus aureus ATCC BAA-44.
Test [11] concerns Staphylococcus aureus ATCC 700698.
Test [12] concerns Sporothrix schenckii.
Test [13] concerns Cryptococcus neoformans.
Test [14] has as its system Escherichia coli ATCC 9637.
Test [15] has as its system Staphylococcus epidermidis.
The test system of test [16] is Klebsiella pneumoniae ATCC 33495.
Test [17] deals with Pseudomonas aeruginosa ATCC BAA-2110.
Test [18] deals with Klebsiella pneumoniae.
Test [19] has as its system Escherichia coli ATCC 51659.
For test [20], the system named is Candida albicans.
Test [21] deals with Enterococcus faecalis ATCC 22192.
The test system of test [22] is Escherichia coli ATCC 25922.
In test [23] the test system is Acinetobacter baumannii.
Test [24] deals with Escherichia coli ATCC 4157.
In test [25] the test system is Pseudomonas aeruginosa ATCC 9027.
The subject of test [26] is Escherichia coli.
Test [27] relates to Staphylococcus aureus.
In test [28] the test system is Klebsiella pneumoniae ATCC BAA-1705.
Test [29] relates to Pseudomonas aeruginosa.
Test [30] concerns Klebsiella pneumoniae ATCC 13883.
Test [31] has as its system Pseudomonas aeruginosa ATCC 27853.
Test [32] deals with Acinetobacter baumannii ATCC 9955.
In test [33] the test system is Enterococcus faecalis ATCC 51299.
Test [34] concerns Acinetobacter baumannii ATCC BAA-1794.
Test [35] concerns Escherichia coli ATCC 8739.
The test system of test [36] is Acinetobacter baumannii Ab41.
In test [37] the test system is Acinetobacter baumannii AbR-215.
Test [38] relates to Mycobacterium tuberculosis FYX.
Test [39] deals with Mycobacterium tuberculosis CAS3.
Test [40] deals with Mycobacterium tuberculosis WXY.
For test [41], the system named is Streptococcus mutans UA159.
Test [42] deals with Streptococcus sobrinus ATCC 6715.
Test [43] has as its system Streptococcus sanguinis ATCC 10556.
Test [44] deals with Bacillus subtilis KCTC 3068.
The subject of test [45] is Salmonella typhimurium CMCC 50013.

In brackets after ≈: the same amount, converted by molar mass. A value given as a limit tells only on which side of the number the result lay.

For the molecule `CC[C@H](C)[C@H](NC(=O)[C@H](C)NC(=O)[C@H](CCCCN)NC(=O)CNC(=O)[C@H](C)NC(=O)[C@H](Cc1cnc[nH]1)NC(=O)[C@@H](NC(=O)[C@H](C)NC(=O)[C@@H]1CCCN1C(=O)[C@H](CCCCN)NC(=O)[C@@H](NC(=O)[C@H](CC(C)C)NC(=O)[C@H](Cc1c[nH]c2ccccc12)NC(=O)CNC(=O)[C@H](Cc1ccccc1)NC(=O)[C@@H](N)Cc1ccccc1)[C@@H](C)CC)[C@@H](C)CC)C(=O)N[C@@H](Cc1cnc[nH]1)C(=O)NCC(=O)N[C@@H](CC(C)C)C(=O)N[C@H](C(=O)N[C@@H](Cc1cnc[nH]1)C(=O)N[C@@H](CCCN=C(N)N)C(=O)N[C@@H](CCCN=C(N)N)C(=O)N[C@@H](CCCN=C(N)N)C(=O)N[C@@H](Cc1cnc[nH]1)C(=O)O)[C@@H](C)CC` [FFGWLIKPAIHAGKAIHGLIHRRRH], the minimum inhibitory concentration (MIC) in [1] was determined as 1.6 µM (≈ 4.69 µg/mL); in test [2], 6.8 µM (≈ 19.9 µg/mL); in test [3], 1.6 µM (≈ 4.69 µg/mL); in [4], 3.3 µM (≈ 9.68 µg/mL); in [5], 0.8 µM (≈ 2.35 µg/mL); in [6], 3 µM (≈ 8.8 µg/mL). In addition, the MIC was 3 µM (≈ 8.8 µg/mL) in test [7]; 3 µM (≈ 8.8 µg/mL) in [8]; 6.8 µM (≈ 19.9 µg/mL) in test [9]; 1.6 µM (≈ 4.69 µg/mL) in [10]; 1.6 µM (≈ 4.69 µg/mL) in [11]; 13.6 µM (≈ 39.9 µg/mL) in test [12]. Further, the results for the MIC in test [13] and in [14] were 6.8 µM (≈ 19.9 µg/mL) and 3.3 µM (≈ 9.68 µg/mL), respectively.

For `CC[C@H](C)[C@H](NC(=O)[C@H](CCCCN)NC(=O)[C@H](CCCN=C(N)N)NC(=O)[C@H](CCCN=C(N)N)NC(=O)[C@H](CC(C)C)NC(=O)[C@H](CCCCN)NC(=O)[C@H](CCCCN)NC(=O)[C@H](Cc1ccccc1)NC(=O)[C@H](CC(C)C)NC(=O)CN)C(=O)N[C@@H](CCCCN)C(=O)N[C@@H](CCCCN)C(=O)NCC(=O)N[C@@H](Cc1ccccc1)C(=O)N[C@@H](CCCCN)C(=O)N[C@@H](CCCCN)C(=O)N[C@H](C(=O)N[C@@H](Cc1ccccc1)C(=O)N[C@@H](CCCCN)C(=O)N[C@@H](CCCN=C(N)N)C(=O)N[C@@H](CC(C)C)C(=O)O)[C@@H](C)CC` [GLFKKLRRKIKKGFKKIFKRL], the MIC in test [15] was 24.3 µM (≈ 64 µg/mL); in test [16] it was 1.97 µM (≈ 5.2 µg/mL); in test [17], 15.9 µM (≈ 42 µg/mL); in test [1], 48.6 µM (≈ 128 µg/mL); in test [18], 48.6 µM (≈ 128 µg/mL); in [19], at least 53.2 µM. Also, the MIC was over 48.6 µM in test [20]; 15.9 µM (≈ 42 µg/mL) in [21]; 12.2 µM (≈ 32 µg/mL) in test [22]; 12.2 µM (≈ 32 µg/mL) in [23]; 10.6 µM (≈ 28 µg/mL) in test [5]; 7.97 µM (≈ 21 µg/mL) in test [24]. Moreover, the MIC in test [25] is 3.8 µM (≈ 10 µg/mL); in test [26], 34.4 µM (≈ 90.5 µg/mL); in test [27], 24.3 µM (≈ 64 µg/mL); in [28] it was 10.6 µM (≈ 28 µg/mL); in [29], 8.59 µM (≈ 22.6 µg/mL); in test [7], over 48.6 µM. The MIC in test [30] came out at 24.3 µM (≈ 64 µg/mL); in [31] it was 24.3 µM (≈ 64 µg/mL); in test [32], 15.9 µM (≈ 42 µg/mL); in [33], 15.9 µM (≈ 42 µg/mL); in test [8], 10.6 µM (≈ 28 µg/mL); in test [34] it was 3.8 µM (≈ 10 µg/mL).

On to `CC(C)C[C@H](NC(=O)[C@H](CCCCN)NC(=O)[C@H](C)NC(=O)[C@H](C)NC(=O)[C@H](C)NC(=O)[C@H](C)NC(=O)[C@H](C)NC(=O)[C@H](C)NC(=O)[C@H](CCCCN)NC(=O)[C@H](CC(C)C)NC(=O)[C@H](C)NC(=O)[C@H](C)NC(=O)[C@H](CCCCN)NC(=O)[C@H](C)NC(=O)[C@H](C)NC(=O)[C@H](CCCCN)NC(=O)[C@H](C)NC(=O)[C@H](C)NC(=O)[C@H](CC(C)C)NC(=O)[C@H](CCCCN)NC(=O)[C@H](C)NC(=O)[C@H](C)NC(=O)[C@H](C)NC(=O)[C@H](C)NC(=O)[C@H](C)NC(=O)[C@H](C)NC(=O)[C@H](CCCCN)NC(=O)[C@@H](N)CC(C)C)C(=O)O` [LKAAAAAAKLAAKAAKAALKAAAAAAKL], for which the MIC was 3.2 µM (≈ 8.06 µg/mL) in [35], at least 80.6 µM in [27], 3.2 µM (≈ 8.06 µg/mL) in [36] and 3.2 µM (≈ 8.06 µg/mL) in test [37].

Regarding `CSCC[C@H](NC(=O)[C@H](CCCCN)NC(=O)[C@H](CCCCN)NC(=O)[C@H](CC(C)C)NC(=O)[C@H](CC(C)C)NC(=O)[C@H](CCCCN)NC(=O)[C@H](CCCCN)NC(=O)[C@H](CC(C)C)NC(=O)[C@H](CC(C)C)NC(=O)[C@@H](N)CCSC)C(=O)O` [MLLKKLLKKM], the MIC in [38] was at least 60.2 µM; in test [39], at least 120 µM; in test [40], at least 60.2 µM.

Consider `NCCCC[C@H](NC(=O)CNC(=O)[C@H](CCCCN)NC(=O)[C@H](CCCCN)NC(=O)[C@H](Cc1ccccc1)NC(=O)[C@H](Cc1ccccc1)NC(=O)[C@H](CCCCN)NC(=O)[C@H](CCCCN)NC(=O)[C@H](Cc1ccccc1)NC(=O)[C@H](Cc1ccccc1)NC(=O)[C@H](CCCCN)NC(=O)CNC(=O)[C@@H](N)Cc1c[nH]c2ccccc12)C(=O)O` [WGKFFKKFFKKGK], for which the figures for the MIC in [41], in test [42] and in [43] were at least 38.2 µM, at least 38.2 µM and at least 153 µM, respectively.

For the molecule `NCCCC[C@H](NC(=O)[C@H](CCCN=C(N)N)NC(=O)CNC(=O)[C@@H](N)Cc1ccc(O)cc1)C(=O)N[C@@H](CCCCN)C(=O)N[C@@H](CCCN=C(N)N)C(=O)N[C@@H](CCCN=C(N)N)C(=O)N[C@@H](CCC(N)=O)C(=O)N[C@@H](CCCN=C(N)N)C(=O)N[C@@H](CCCN=C(N)N)C(=O)N[C@@H](CCCN=C(N)N)C(=O)O` [YGRKKRRQRRR], the MIC in test [1] is 16.6 µM (≈ 25.9 µg/mL); in test [22] it was 15.5 µM (≈ 24.1 µg/mL); in test [44], 26.4 µM (≈ 41.2 µg/mL); in test [45], 29 µM (≈ 45.2 µg/mL).
